From PubChem BioAssay (NCI)
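1) Cells in 96-well plates. 2) Compound, 48 h, 5 concentrations. 3) Linear interpolation between surrounding doses. 4) Unreached endpoint = highest concentration. GI50 = concentration required for 50% inhibition of growth. TGI denotes the concentration required for complete inhibition of growth.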

Legend:
Assay in all cases: NCI-60 cell line screen, 48 h
OVCAR-4 ovarian = system: OVCAR-4 ovarian
DMS 114 small cell lung = system: DMS 114 small cell lung
U251 CNS = system: U251 CNS
NCI-H226 lung = system: NCI-H226 lung
OVCAR-5 ovarian = system: OVCAR-5 ovarian
UO-31 renal = system: UO-31 renal
SR leukemia = system: SR leukemia
ACHN renal = system: ACHN renal
EKVX NSCLC = system: EKVX NSCLC
NCI-H23 lung = system: NCI-H23 lung
HCT-15 colon = system: HCT-15 colon
SF-295 CNS = system: SF-295 CNS
RXF-631 renal = system: RXF-631 renal
HCC-2998 colon = system: HCC-2998 colon
HOP-18 NSCLC = system: HOP-18 NSCLC
K-562 leukemia = system: K-562 leukemia
RXF 393 renal = system: RXF 393 renal
M19-MEL melanoma = system: M19-MEL melanoma
XF 498 CNS = system: XF 498 CNS
CCRF-CEM leukemia = system: CCRF-CEM leukemia
SNB-19 CNS = system: SNB-19 CNS
SW-620 colon = system: SW-620 colon
HCT-116 colon = system: HCT-116 colon
TK-10 renal = system: TK-10 renal
HOP-62 NSCLC = system: HOP-62 NSCLC
UACC-62 melanoma = system: UACC-62 melanoma
SK-MEL-28 melanoma = system: SK-MEL-28 melanoma
SNB-78 CNS = system: SNB-78 CNS
KM20L2 colon = system: KM20L2 colon
KM12 colon = system: KM12 colon
SF-268 CNS = system: SF-268 CNS
DMS 273 small cell lung = system: DMS 273 small cell lung
DLD-1 colon = system: DLD-1 colon
SK-MEL-5 melanoma = system: SK-MEL-5 melanoma
IGROV1 ovarian = system: IGROV1 ovarian
OVCAR-3 ovarian = system: OVCAR-3 ovarian
SN12C renal = system: SN12C renal
CAKI-1 renal = system: CAKI-1 renal
A549 NSCLC = system: A549 NSCLC
COLO 205 colon = system: COLO 205 colon
NCI-H522 lung = system: NCI-H522 lung
MALME-3M melanoma = system: MALME-3M melanoma
RPMI-8226 leukemia = system: RPMI-8226 leukemia
LOX IMVI melanoma = system: LOX IMVI melanoma
SK-OV-3 ovarian = system: SK-OV-3 ovarian
SK-MEL-2 melanoma = system: SK-MEL-2 melanoma
OVCAR-8 ovarian = system: OVCAR-8 ovarian
SF-539 CNS = system: SF-539 CNS
MOLT-4 leukemia = system: MOLT-4 leukemia
LXFL 529 NSCLC = system: LXFL 529 NSCLC
786-0 renal = system: 786-0 renal
HOP-92 NSCLC = system: HOP-92 NSCLC
M14 melanoma = system: M14 melanoma
NCI-H460 lung = system: NCI-H460 lung
HT29 colon = system: HT29 colon
A498 renal = system: A498 renal
SNB-75 CNS = system: SNB-75 CNS
UACC-257 melanoma = system: UACC-257 melanoma
HL-60(TB) leukemia = system: HL-60(TB) leukemia

O=c1c2ccccc2c(=O)n2n1-c1cccc(c1)CSSCc1cccc-2c1
GI50 (OVCAR-4 ovarian): > 100 µM
TGI (OVCAR-4 ovarian): > 100 µM
GI50 (DMS 114 small cell lung): > 100 µM
TGI (DMS 114 small cell lung): > 100 µM
TGI (U251 CNS): > 100 µM
GI50 (NCI-H226 lung): > 100 µM
TGI (NCI-H226 lung): > 100 µM
GI50 (OVCAR-5 ovarian): > 100 µM
TGI (OVCAR-5 ovarian): > 100 µM
GI50 (UO-31 renal): > 100 µM
TGI (UO-31 renal): > 100 µM
GI50 (SR leukemia): > 100 µM
TGI (SR leukemia): > 100 µM
GI50 (ACHN renal): > 100 µM
TGI (ACHN renal): > 100 µM
GI50 (EKVX NSCLC): > 100 µM
TGI (EKVX NSCLC): > 100 µM
GI50 (NCI-H23 lung): > 100 µM
TGI (NCI-H23 lung): > 100 µM
GI50 (HCT-15 colon): > 100 µM
TGI (HCT-15 colon): > 100 µM
TGI (SF-295 CNS): > 100 µM
GI50 (RXF-631 renal): > 100 µM
TGI (RXF-631 renal): > 100 µM
GI50 (HCC-2998 colon): > 100 µM
TGI (HCC-2998 colon): > 100 µM
GI50 (HOP-18 NSCLC): > 100 µM
TGI (HOP-18 NSCLC): > 100 µM
GI50 (K-562 leukemia): > 100 µM
TGI (K-562 leukemia): > 100 µM
TGI (RXF 393 renal): > 100 µM
GI50 (M19-MEL melanoma): > 100 µM
TGI (M19-MEL melanoma): > 100 µM
TGI (XF 498 CNS): > 100 µM
GI50 (CCRF-CEM leukemia): > 100 µM
TGI (CCRF-CEM leukemia): > 100 µM
GI50 (SNB-19 CNS): > 100 µM
TGI (SNB-19 CNS): > 100 µM
GI50 (SW-620 colon): > 100 µM
TGI (SW-620 colon): > 100 µM
GI50 (HCT-116 colon): > 100 µM
TGI (HCT-116 colon): > 100 µM
GI50 (TK-10 renal): > 100 µM
TGI (TK-10 renal): > 100 µM
GI50 (HOP-62 NSCLC): > 100 µM
TGI (HOP-62 NSCLC): > 100 µM
GI50 (UACC-62 melanoma): > 100 µM
TGI (UACC-62 melanoma): > 100 µM
GI50 (SK-MEL-28 melanoma): > 100 µM
TGI (SK-MEL-28 melanoma): > 100 µM
TGI (SNB-78 CNS): > 100 µM
TGI (KM20L2 colon): > 100 µM
GI50 (KM12 colon): > 100 µM
TGI (KM12 colon): > 100 µM
GI50 (SF-268 CNS): > 100 µM
TGI (SF-268 CNS): > 100 µM
GI50 (DMS 273 small cell lung): > 100 µM
TGI (DMS 273 small cell lung): > 100 µM
GI50 (DLD-1 colon): > 100 µM
TGI (DLD-1 colon): > 100 µM
GI50 (SK-MEL-5 melanoma): > 100 µM
TGI (SK-MEL-5 melanoma): > 100 µM
GI50 (IGROV1 ovarian): > 100 µM
TGI (IGROV1 ovarian): > 100 µM
GI50 (OVCAR-3 ovarian): > 100 µM
TGI (OVCAR-3 ovarian): > 100 µM
GI50 (SN12C renal): > 100 µM
TGI (SN12C renal): > 100 µM
GI50 (CAKI-1 renal): > 100 µM
TGI (CAKI-1 renal): > 100 µM
GI50 (A549 NSCLC): > 100 µM
TGI (A549 NSCLC): > 100 µM
GI50 (COLO 205 colon): > 100 µM
TGI (COLO 205 colon): > 100 µM
GI50 (NCI-H522 lung): > 100 µM
TGI (NCI-H522 lung): > 100 µM
GI50 (MALME-3M melanoma): > 100 µM
TGI (MALME-3M melanoma): > 100 µM
GI50 (RPMI-8226 leukemia): > 100 µM
TGI (RPMI-8226 leukemia): > 100 µM
TGI (LOX IMVI melanoma): > 100 µM
TGI (SK-OV-3 ovarian): > 100 µM
GI50 (SK-MEL-2 melanoma): > 100 µM
TGI (SK-MEL-2 melanoma): > 100 µM
GI50 (OVCAR-8 ovarian): > 100 µM
TGI (OVCAR-8 ovarian): > 100 µM
GI50 (SF-539 CNS): > 100 µM
TGI (SF-539 CNS): > 100 µM
GI50 (MOLT-4 leukemia): > 100 µM
TGI (MOLT-4 leukemia): > 100 µM
GI50 (LXFL 529 NSCLC): > 100 µM
TGI (LXFL 529 NSCLC): > 100 µM
TGI (786-0 renal): > 100 µM

O=NN(CC1(O)OCC(O)C(O)C1O)C(Cc1c[nH]c2ccccc12)C(=O)O (stereo not given)
TGI (HOP-92 NSCLC): > 100 µM
TGI (DMS 114 small cell lung): > 100 µM
TGI (U251 CNS): > 100 µM
TGI (OVCAR-5 ovarian): > 100 µM
TGI (ACHN renal): > 100 µM
TGI (EKVX NSCLC): > 100 µM
TGI (NCI-H23 lung): > 100 µM
TGI (RXF-631 renal): > 100 µM
TGI (HCC-2998 colon): > 100 µM
TGI (M14 melanoma): > 100 µM
TGI (K-562 leukemia): > 100 µM
TGI (NCI-H460 lung): > 100 µM
TGI (RXF 393 renal): > 100 µM
TGI (M19-MEL melanoma): > 100 µM
TGI (XF 498 CNS): > 100 µM
TGI (CCRF-CEM leukemia): > 100 µM
TGI (HT29 colon): > 100 µM
TGI (SW-620 colon): > 100 µM
TGI (HCT-116 colon): > 100 µM
TGI (TK-10 renal): > 100 µM
TGI (HOP-62 NSCLC): > 100 µM
TGI (UACC-62 melanoma): > 100 µM
TGI (SK-MEL-28 melanoma): > 100 µM
TGI (SNB-78 CNS): > 100 µM
TGI (KM20L2 colon): > 100 µM
TGI (KM12 colon): > 100 µM
TGI (DMS 273 small cell lung): > 100 µM
TGI (DLD-1 colon): > 100 µM
TGI (A498 renal): > 100 µM
TGI (SK-MEL-5 melanoma): > 100 µM
TGI (SNB-75 CNS): > 100 µM
TGI (IGROV1 ovarian): > 100 µM
TGI (OVCAR-3 ovarian): > 100 µM
TGI (A549 NSCLC): > 100 µM
TGI (COLO 205 colon): > 100 µM
TGI (NCI-H522 lung): > 100 µM
TGI (UACC-257 melanoma): > 100 µM
TGI (MALME-3M melanoma): > 100 µM
TGI (RPMI-8226 leukemia): > 100 µM
TGI (LOX IMVI melanoma): > 100 µM
TGI (SK-OV-3 ovarian): > 100 µM
TGI (SK-MEL-2 melanoma): > 100 µM
TGI (OVCAR-8 ovarian): > 100 µM
TGI (SF-539 CNS): > 100 µM
TGI (MOLT-4 leukemia): > 100 µM
TGI (HL-60(TB) leukemia): > 100 µM
TGI (786-0 renal): > 100 µM
